Reference: ChEMBL document CHEMBL3885881, “DrugMatrix”

Organism: Rattus norvegicus
Assay: DrugMatrix - Regimen: Daily Repeat
Assay type: toxicity, organism-based, Sprague-Dawley
Set-up: regimen Daily Repeat, gender Male, age 6-8 weeks
Details: in vivo, po, route oral GAVAGE, vehicle .5 % CMC; for ABSOLUTE BASOPHIL / ABSOLUTE EOSINOPHIL / ABSOLUTE LYMPHOCYTE / ABSOLUTE MONOCYTE / ABSOLUTE SEGMENTED NEUTROPHIL / BASOPHIL / EOSINOPHIL / ERYTHROCYTE COUNT / HEMATOCRIT / HEMOGLOBIN / LEUKOCYTE COUNT / LYMPHOCYTE / MEAN CORPUSCULAR HEMOGLOBIN / MEAN CORPUSCULAR HEMOGLOBIN CONCENTRATION / MEAN CORPUSCULAR VOLUME / MONOCYTE / NEUTROPHIL / NUCLEATED RED BLOOD CELLS / PLATELET COUNT: tissue Blood; for ALANINE AMINOTRANSFERASE / ALBUMIN / ALKALINE PHOSPHATASE / ASPARTATE AMINOTRANSFERASE / BLOOD UREA NITROGEN / CARBON DIOXIDE / CHLORIDE / CHOLESTEROL / CREATINE PHOSPHOKINASE / CREATININE / GLUCOSE / LACTATE DEHYDROGENASE / LIPASE / PHOSPHORUS / POTASSIUM / SODIUM / TOTAL BILIRUBIN / TOTAL PROTEIN / URIC ACID: tissue Plasma
[1] = 47 mg/kg, 120 h, dose level High, time 5 day
[2] = […], 72 h, dose 3.6 mg/Kg, dose level Low, time 3 day
[3] = […], 120 h, dose 3.6 mg/Kg, dose level Low, time 5 day

SMILES: CN(C)C(=O)C(CCN1CCC(O)(c2ccc(Cl)cc2)CC1)(c1ccccc1)c1ccccc1 [LOPERAMIDE]
- ABSOLUTE BASOPHIL [1]: 0 CELLS/uL
- ABSOLUTE EOSINOPHIL [1]: 31.33 CELLS/uL
- ABSOLUTE LYMPHOCYTE [1]: 6903.67 CELLS/uL
- ABSOLUTE MONOCYTE [1]: 106 CELLS/uL
- ABSOLUTE SEGMENTED NEUTROPHIL [1]: 859 CELLS/uL
- BASOPHIL [1]: 0%
- EOSINOPHIL [1]: 0.33%
- ERYTHROCYTE COUNT [1]: 5.64 x10E6/uL
- HEMATOCRIT [1]: 35.1%
- HEMOGLOBIN [1]: 14.03 G/DL
- LEUKOCYTE COUNT [1]: 7.9 x10E3/uL
- LYMPHOCYTE [1]: 87.67%
- MEAN CORPUSCULAR HEMOGLOBIN [1]: 24.93 pg
- MEAN CORPUSCULAR HEMOGLOBIN CONCENTRATION [1]: 40 G/DL
- MEAN CORPUSCULAR VOLUME [1]: 62.3 fL
- MONOCYTE [1]: 1.33%
- NEUTROPHIL [1]: 10.67%
- NUCLEATED RED BLOOD CELLS [1]: 0 /100WBC
- PLATELET COUNT [1]: 1406.33 x10E3/uL
- ALANINE AMINOTRANSFERASE [1]: 93.33 u/L
- ALBUMIN [1]: 4.4 G/DL
- ALKALINE PHOSPHATASE [1]: 365.33 u/L
- ASPARTATE AMINOTRANSFERASE [1]: 91 u/L
- BLOOD UREA NITROGEN [1]: 16 mg/dL
- CARBON DIOXIDE [1]: 30.67 mmol/L
- CHLORIDE [1]: 100.67 MEQ/L
- CHOLESTEROL [1]: 58 mg/dL
- CREATINE PHOSPHOKINASE [1]: 208.67 u/L
- CREATININE [1]: 0.14 mg/dL
- GLUCOSE [1]: 162.67 mg/dL
- LACTATE DEHYDROGENASE [1]: 118.33 u/L
- LIPASE [1]: 7.67 u/L
- PHOSPHORUS [1]: 10.77 mg/dL
- POTASSIUM [1]: 4.92 MEQ/L
- SODIUM [1]: 146.5 MEQ/L
- TOTAL BILIRUBIN [1]: 0.17 mg/dL
- TOTAL PROTEIN [1]: 6.07 G/DL
- URIC ACID [1]: 0.83 mg/dL
- ABSOLUTE BASOPHIL [2]: 0 CELLS/uL
- ABSOLUTE EOSINOPHIL [2]: 192.67 CELLS/uL
- ABSOLUTE LYMPHOCYTE [2]: 13020.33 CELLS/uL
- ABSOLUTE MONOCYTE [2]: 102.67 CELLS/uL
- ABSOLUTE SEGMENTED NEUTROPHIL [2]: 1651 CELLS/uL
- BASOPHIL [2]: 0%
- EOSINOPHIL [2]: 1.33%
- ERYTHROCYTE COUNT [2]: 5.19 x10E6/uL
- HEMATOCRIT [2]: 33.57%
- HEMOGLOBIN [2]: 13.8 G/DL
- LEUKOCYTE COUNT [2]: 14.97 x10E3/uL
- LYMPHOCYTE [2]: 87%
- MEAN CORPUSCULAR HEMOGLOBIN [2]: 26.63 pg
- MEAN CORPUSCULAR HEMOGLOBIN CONCENTRATION [2]: 41.1 G/DL
- MEAN CORPUSCULAR VOLUME [2]: 64.7 fL
- MONOCYTE [2]: 0.67%
- NEUTROPHIL [2]: 11%
- NUCLEATED RED BLOOD CELLS [2]: 0 /100WBC
- PLATELET COUNT [2]: 1302 x10E3/uL
- ALANINE AMINOTRANSFERASE [2]: 64.33 u/L
- ALBUMIN [2]: 4.2 G/DL
- ALKALINE PHOSPHATASE [2]: 426 u/L
- ASPARTATE AMINOTRANSFERASE [2]: 86 u/L
- BLOOD UREA NITROGEN [2]: 16 mg/dL
- CARBON DIOXIDE [2]: 27 mmol/L
- CHLORIDE [2]: 102 MEQ/L
- CHOLESTEROL [2]: 83.33 mg/dL
- CREATINE PHOSPHOKINASE [2]: 331 u/L
- CREATININE [2]: 0.14 mg/dL
- GLUCOSE [2]: 168 mg/dL
- LACTATE DEHYDROGENASE [2]: 198.33 u/L
- LIPASE [2]: 10 u/L
- PHOSPHORUS [2]: 11.93 mg/dL
- POTASSIUM [2]: 5.72 MEQ/L
- SODIUM [2]: 142.8 MEQ/L
- TOTAL BILIRUBIN [2]: 0.13 mg/dL
- TOTAL PROTEIN [2]: 5.63 G/DL
- URIC ACID [2]: 1.23 mg/dL
- ABSOLUTE BASOPHIL [3]: 0 CELLS/uL
- ABSOLUTE EOSINOPHIL [3]: 0 CELLS/uL
- ABSOLUTE LYMPHOCYTE [3]: 11205 CELLS/uL
- ABSOLUTE MONOCYTE [3]: 32.67 CELLS/uL
- ABSOLUTE SEGMENTED NEUTROPHIL [3]: 1129 CELLS/uL
- BASOPHIL [3]: 0%
- EOSINOPHIL [3]: 0%
- ERYTHROCYTE COUNT [3]: 5.52 x10E6/uL
- HEMATOCRIT [3]: 35.23%
- HEMOGLOBIN [3]: 14.13 G/DL
- LEUKOCYTE COUNT [3]: 12.37 x10E3/uL
- LYMPHOCYTE [3]: 91%
- MEAN CORPUSCULAR HEMOGLOBIN [3]: 25.63 pg
- MEAN CORPUSCULAR HEMOGLOBIN CONCENTRATION [3]: 40.13 G/DL
- MEAN CORPUSCULAR VOLUME [3]: 63.87 fL
- MONOCYTE [3]: 0.33%
- NEUTROPHIL [3]: 8.67%
- NUCLEATED RED BLOOD CELLS [3]: 0 /100WBC
- PLATELET COUNT [3]: 1068 x10E3/uL
- ALANINE AMINOTRANSFERASE [3]: 58.33 u/L
- ALBUMIN [3]: 4.3 G/DL
- ALKALINE PHOSPHATASE [3]: 376 u/L
- ASPARTATE AMINOTRANSFERASE [3]: 86.67 u/L
- BLOOD UREA NITROGEN [3]: 13.67 mg/dL
- CARBON DIOXIDE [3]: 33 mmol/L
- CHLORIDE [3]: 101.67 MEQ/L
- CHOLESTEROL [3]: 67.67 mg/dL
- CREATINE PHOSPHOKINASE [3]: 233.67 u/L
- CREATININE [3]: 0.2 mg/dL
- GLUCOSE [3]: 140.33 mg/dL
- LACTATE DEHYDROGENASE [3]: 157.33 u/L
- LIPASE [3]: 9.67 u/L
- PHOSPHORUS [3]: 12.57 mg/dL
- POTASSIUM [3]: 6.47 MEQ/L
- SODIUM [3]: 145.27 MEQ/L
- TOTAL BILIRUBIN [3]: 0.2 mg/dL
- TOTAL PROTEIN [3]: 6.07 G/DL
- URIC ACID [3]: 1.23 mg/dL
